Residues, ends and D or L forms follow the SMILES beside them.
Each molecule was assayed against T1, FL_Reg1 (Homo sapiens, UniProt Q5D1E8) (assay: Binding of Regnase-1 and peptide compounds (affinity mass analysis, SEC then LC/MS)). Settings: 1 μM FL_Reg1, final compound concentration 1 μM, 23° C. for one hour.
T1 construct: made in house; host or cells: Expi293 cells
T1 sequence (Q5D1E8 1-599): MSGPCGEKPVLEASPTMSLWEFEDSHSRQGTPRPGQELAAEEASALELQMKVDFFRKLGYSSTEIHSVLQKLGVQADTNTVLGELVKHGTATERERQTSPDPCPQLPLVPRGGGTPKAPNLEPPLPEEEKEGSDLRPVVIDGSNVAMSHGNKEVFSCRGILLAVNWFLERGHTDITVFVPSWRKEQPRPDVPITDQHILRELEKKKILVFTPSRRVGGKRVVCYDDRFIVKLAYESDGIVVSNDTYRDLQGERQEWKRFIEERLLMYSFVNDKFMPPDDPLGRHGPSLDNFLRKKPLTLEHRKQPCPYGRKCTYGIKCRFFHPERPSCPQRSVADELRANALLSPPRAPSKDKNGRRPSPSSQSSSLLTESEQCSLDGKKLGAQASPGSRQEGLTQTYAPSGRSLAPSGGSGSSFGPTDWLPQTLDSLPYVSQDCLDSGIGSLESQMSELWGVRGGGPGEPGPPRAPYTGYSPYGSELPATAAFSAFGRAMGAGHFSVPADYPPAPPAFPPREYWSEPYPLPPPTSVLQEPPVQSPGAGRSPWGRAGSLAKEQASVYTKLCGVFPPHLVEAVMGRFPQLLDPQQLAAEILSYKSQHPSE
Method: To a 96 PP plate (Greiner bio-one, 651201) coated with lipidure (Lipidure-CM5206) (NOF CORPORATION, 71S42000001), 2 μL of Tris-Buffer (25 mM Tris-NaOH pH 8.3, 300 mM NaCl, 1 mM DTT, 1 mM EDTA, 1% DMSO) was dispensed, and then 1 mM DMSO sample was added at 20 nL each with a LABCYTE ECHO (registered trademark) acoustic dispensing system. Furthermore, 18 μL of protein prepared at 1 μM FL_Reg1 in advance using Tris-Buffer was added (final compound concentration: 1 μM), and the mixture was incubated in the dark at 23° C. for one hour. Then, to a 96-well, 400 μL, Hydrophilic PVDF 0.45 μm, Long drip (Harvard, 74-5556), 100 μL of P-2, Fine (Bio-Rad, 1504114) which had been swollen in advance was added, and conditioning was performed by centrifuging several times at 2000× G for two minutes using the buffer. Next, 20 μL of the sample after incubation was added to the conditioned 96-well, 400 μL, Hydrophilic PVDF 0.45 μm, Long drip, and SEC treatment was performed by centrifugation at 2000×G for two minutes. To the liquid from SEC, 32 μL of acetonitrile (LC/MS grade, FUJIFILM Wako Pure Chemical Industries, Ltd.) supplemented with 0.1% formic acid (LC/MS grade, 067-04531, FUJIFILM Wako Pure Chemical Industries, Ltd.) was added, and this was centrifuged at 1800×G for five minutes, and the supernatant was used as an analysis sample for LC/MS measurement. Binding to Regnase-1 was detected for all of the peptide compounds, PP1 to PP25.
For CC[C@H](C)[C@@H]1NC(=O)[C@H](CCCNC(=N)N)NC(=O)[C@H](Cc2ccc(O)cc2)NC(=O)[C@H](Cc2c[nH]c3ccccc23)NC(=O)[C@H](CO)NC(=O)[C@H](CC(N)=O)NC(=O)[C@H](C)N(C)C(=O)C[C@@H](C(=O)N2CCCC2)NC(=O)[C@H](CC(C)C)NC(=O)CNC(=O)[C@H](Cc2c[nH]c3ccccc23)NC1=O [PP22] (HELM PEPTIDE1{[meA].N.S.W.Y.R.I.W.G.L.D.[C1CCN([*:1])C1]}$PEPTIDE1,PEPTIDE1,1:R1-11:R3$$$V2.0), the “AS-MS ratio(%)” value was 14.5%.
CC[C@H](C)[C@@H]1NC(=O)[C@H](CC(N)=O)NC(=O)[C@H](Cc2ccc(O)cc2)NC(=O)[C@H](Cc2c[nH]c3ccccc23)NC(=O)[C@H](CO)NC(=O)[C@H](CC(N)=O)NC(=O)[C@H](CO)NC(=O)[C@H](Cc2ccccc2)NC(=O)[C@H](CC(N)=O)NC(=O)[C@H](C)N(C)C(=O)C[C@@H](C(=O)N2CCCC2)NC(=O)[C@H](Cc2c[nH]c3ccccc23)NC1=O [PP16] (HELM PEPTIDE1{[meA].N.F.S.N.S.W.Y.N.I.W.D.[C1CCN([*:1])C1]}$PEPTIDE1,PEPTIDE1,1:R1-12:R3$$$V2.0) was tested, and the “AS-MS ratio(%)” value was 17.9%.
In the case of CC[C@H](C)[C@@H]1NC(=O)[C@H](CCCCN)NC(=O)[C@H](Cc2ccc(O)cc2)NC(=O)[C@H](Cc2c[nH]c3ccccc23)NC(=O)[C@H](CO)NC(=O)[C@H](CC(N)=O)NC(=O)[C@H](C)N(C)C(=O)C[C@@H](C(=O)N2CCCC2)NC(=O)[C@H](CC(C)C)NC(=O)CNC(=O)[C@H](Cc2c[nH]c3ccccc23)NC1=O [PP21] (HELM PEPTIDE1{[meA].N.S.W.Y.K.I.W.G.L.D.[C1CCN([*:1])C1]}$PEPTIDE1,PEPTIDE1,1:R1-11:R3$$$V2.0), the “AS-MS ratio(%)” value is reported as 15.1%.
With CC[C@H](C)[C@@H]1NC(=O)[C@H](CO)NC(=O)[C@H](CCCNC(=N)N)NC(=O)[C@H](Cc2ccc(O)cc2)NC(=O)[C@H](Cc2ccc(O)cc2)NC(=O)[C@H](Cc2c[nH]c3ccccc23)NC(=O)[C@H](CO)NC(=O)[C@H](CCC(N)=O)NC(=O)[C@H](Cc2ccc(O)cc2)NC(=O)[C@H](CC(N)=O)NC(=O)[C@H](C)N(C)C(=O)C[C@@H](C(=O)N2CCCC2)NC(=O)[C@H](Cc2c[nH]c3ccccc23)NC1=O [PP10] (HELM PEPTIDE1{[meA].N.Y.Q.S.W.Y.Y.R.S.I.W.D.[C1CCN([*:1])C1]}$PEPTIDE1,PEPTIDE1,1:R1-13:R3$$$V2.0) the “AS-MS ratio(%)” value was 3.7%.
With CC[C@H](C)[C@@H]1NC(=O)[C@H](CC(N)=O)NC(=O)[C@H]([C@@H](C)CC)NC(=O)[C@H](Cc2ccc(O)cc2)NC(=O)[C@H](Cc2c[nH]c3ccccc23)NC(=O)[C@H](CO)NC(=O)[C@H](CC(N)=O)NC(=O)[C@H](C)N(C)C(=O)C[C@@H](C(=O)N2CCCC2)NC(=O)[C@H](Cc2c[nH]cn2)NC(=O)CNC(=O)[C@H](Cc2c[nH]c3ccccc23)NC1=O [PP15] (HELM PEPTIDE1{[meA].N.S.W.Y.I.N.I.W.G.H.D.[C1CCN([*:1])C1]}$PEPTIDE1,PEPTIDE1,1:R1-12:R3$$$V2.0) the “AS-MS ratio(%)” value was 66.7%.

Source: patent US20250018014A1, “METHOD FOR TREATING AND/OR PREVENTING REGNASE-1-RELATED DISEASE” (OSAKA UNIVERSITY, priority 2018, published 2025)
